# BindingDB's records for doi:10.1016/j.bmc.2009.01.019 (Takeda Pharmaceutical, 2009)
# pIC50: −log10 of the molar value.
# Molecular target: Glycogen synthase kinase-3 beta (Homo sapiens, UniProt P49841)
# Test: GSK-3beta Kinase Inhibition Assay
# Conditions: pH 7.5; 37 °C
# Description: Human GSK-3beta was expressed as the N-terminal FLAG-tagged protein using a baculovirus expression system. The kinase assay was conducted in a 96-well plate assay format. The kinase reactions were initiated by addition of ATP-solution (final 500 nM), and were incubated for 90 min at 37 deg C for GSK-3 beta. The reactions were terminated by the addition of Kinase-Glo reagent containing EDTA. […] The reaction window was calculated from the difference of the average signals obtained from the control (5% DMSO) and the background wells. […] The best-fit lines were obtained by analyzing the logistic fitting equation.
# Chain of Glycogen synthase kinase-3 beta (P49841 whole entry): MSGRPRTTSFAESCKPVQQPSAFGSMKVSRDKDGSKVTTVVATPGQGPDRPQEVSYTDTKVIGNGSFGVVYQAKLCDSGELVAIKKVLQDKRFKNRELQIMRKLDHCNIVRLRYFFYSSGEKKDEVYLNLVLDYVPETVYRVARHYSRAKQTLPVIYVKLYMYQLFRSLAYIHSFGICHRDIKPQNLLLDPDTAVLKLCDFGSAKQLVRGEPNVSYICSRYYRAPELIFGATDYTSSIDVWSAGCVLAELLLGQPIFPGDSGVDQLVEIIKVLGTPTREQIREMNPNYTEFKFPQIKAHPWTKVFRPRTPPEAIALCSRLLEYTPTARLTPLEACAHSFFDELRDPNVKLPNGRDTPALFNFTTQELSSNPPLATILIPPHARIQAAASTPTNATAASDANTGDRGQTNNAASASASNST
smiles,measurement,value
"COc1ccc(CSc2nnc(-c3ccc4nccn4c3)o2)cc1C(F)(F)F [oxadiazole derivative, 20q]",pIC50,8.19
